# From patent US20080038838A1, “Dioxin-Binding Material and Method of Detecting or Quantifying Dioxin” (Towa Kagaku Co., Ltd., priority 2003, published 2008)
# “And” between values parts separate entries of the source, which are not always exact repeats. Identical values can stand only once. “Also recorded” adds a separate entry of the source. Square brackets hold non-standard residues; d marks the D form. Ends that are not written are not given here. Cha = N[C@@H](CC1CCCCC1)C(=O)O; Phg = N[C@H](C(=O)O)c1ccccc1; Nva = CCC[C@H](N)C(=O)O
# Assays:
# [1] = method of competitive dioxin binding on bead (2,3,7,8-TeCDD); conditions: for capability of detecting 2,3,7,8-TeCDD compared with DB2: 30% 1,4-dioxane solvent
# Experimental: (§1) 1 ml of a screening solvent containing 4 nM NBD-labeled dichlorophenol and 0-100 nM of a substance to be detected was prepared in a glass vial, and then three dioxin-binding peptide beads were put into the screening solvent. The resulting mixture was incubated, with mild shaking, overnight at room temperature, and then fluorescent microscope images thereof were recorded. The average fluorescence intensity of each bead was calculated from the recorded images. Calculation of the average fluorescence intensity was performed with an image analysis/measurement software, “Image-Pro Plus” (Planetron, Inc.). When competitive binding of the dichlorophenol with a dioxin occurs, the fluorescence intensity of each bead decreases depending on the concentration of the dioxin. Such a method of measuring the dioxin concentration utilizing the quenching phenomenon of the beads was termed “the method of competitive dioxin binding on bead”.
# The DB2 peptide was evaluated for affinity to dioxins by the method of competitive dioxin binding on bead. FIGS. 6 (A) and 6 (B) show the results of tests conducted in a solvent containing 30% 1,4-dioxane. The relationship between dioxin concentration and average fluorescence intensity is plotted in FIG. 6 (A). As shown in the figure, declining sigmoid curves, which are characteristic of the competitive binding, were obtained. The curves were fitted using the four-parameter logistic equation, y=(a−d)/(1+(x/c)^b)+d, which is an empirical equation typically employed in competitive ELISA (Eiji Ishikawa, “Enzyme Immunoassay (3rd Edition)”, IGAKU-SHOIN).
# (§2) The quenching ratio was calculated using the equation shown below. The beads were evaluated for affinity with the substances detected based on the values of quenching ratios.
# (§3) quenching ratio=(fluorescence intensity 1−fluorescence intensity 2)/fluorescence intensity 1×100(%)
# The binding constants of the DB2 peptide were calculated using the results of the above equation. Fitting was performed based on the theoretical equation for one-to-one binding of a receptor with a ligand as shown below:
# (§4) Tests were conducted on the above-mentioned peptides by the method of competitive dioxin binding on bead described in Example 2, using a 30% 1,4-dioxane solvent. […] All the four kinds of single residue-substituted peptides were evaluated for dioxin binding capability by the method of competitive dioxin binding on bead.
# [2] = fluorescent staining of peptide beads with NBD-labeled dichlorophenol; type: binding; conditions: 30% 1,4-dioxane solvent (FIG. 10)
# Experimental: About 2.5 million peptide beads were used for screening, the number being equal to the number of combinations of all the sequences of peptides comprising 5 amino acid residues. The primary screening was conducted in a screening solvent (a 10 mM phosphate buffer containing 20% 1,4-dioxane (pH: 8)) containing 4 nM NBD-labeled dichlorophenol. 20 ml of the buffer solution was first mixed with about 50 mg of the peptide beads, and the mixture was subsequently incubated overnight, with mild shaking, in a petri dish at room temperature. A fraction of fluorescently stained peptide beads observed by a fluorescent microscope was collected with a micropipette. These peptide beads were transferred into a micro test tube containing 50 or 100% 1,4-dioxane, and were then incubated overnight at room temperature, i.e., washing with 50 or 100% dioxane overnight at room temperature. Peptide beads which were unable to be washed, on which the NBD-labeled dichlorophenol was unspecifically adsorbed, were excluded. Peptide beads that could be washed were re-stained with 1 nM NBD-labeled dichlorophenol. In order to measure the fluorescence intensity, fluorescent microscope images of the peptide beads were recorded with a digital camera (FIG. 4).
# as §1
# A library of twenty-one kinds of single amino acid-substituted peptides shown in FIG. 8 was constructed in order to evaluate the importance of each amino acid of the obtained oligopeptides, and to optimize the sequences. […]
# as §4
# [3] = secondary screening of peptide beads: fluorescence decrease by competition with 2,3,7-TriCDD; type: binding; conditions: 1 nM NBD-labeled dichlorophenol, 10 mM phosphate buffer pH 8 with 20% 1,4-dioxane
# Text: A peptide library was constructed by split-and-pool synthesis, one of the typical techniques of combinatorial chemistry, using beads for peptide solid-phase synthesis. According to the present method, a peptide of one kind of sequence is synthesized on a single bead. […] Primary screening involved screening of fluorescently stained peptide beads, using a composite (FIG. 3) obtained by labeling 3,4-dichlorophenol, which has an analogous structure to dioxins, with NBD as a fluorescent material.
# About 2.5 million peptide beads were used for screening, the number being equal to the number of combinations of all the sequences of peptides comprising 5 amino acid residues. […] In order to measure the fluorescence intensity, fluorescent microscope images of the peptide beads were recorded with a digital camera (FIG. 4).
# The aforementioned washable peptide beads were put into 1 ml of a screening solvent containing 1 nM NBD-labeled dichlorophenol and 10 or 100 nM 2,3,7-trichlorodibenzo-p-dioxin (2,3,7-TriCDD). The mixture was incubated overnight with mild shaking at room temperature, and was then transferred onto a glass petri dish, and fluorescent microscope images thereof were recorded. The obtained images were compared with the images recorded in the previous test so as to screen decreased beads. […]
# [4] = method of competitive dioxin binding on bead (2,3,7-TriCDD)
# Experimental: 1 ml of a screening solvent containing 4 nM NBD-labeled dichlorophenol and 0-100 nM of a substance to be detected was prepared in a glass vial, and then three dioxin-binding peptide beads were put into the screening solvent. The resulting mixture was incubated, with mild shaking, overnight at room temperature, and then fluorescent microscope images thereof were recorded. The average fluorescence intensity of each bead was calculated from the recorded images. Calculation of the average fluorescence intensity was performed with an image analysis/measurement software, “Image-Pro Plus” (Planetron, Inc.). When competitive binding of the dichlorophenol with a dioxin occurs, the fluorescence intensity of each bead decreases depending on the concentration of the dioxin. […]
# The DB2 peptide was evaluated for affinity to dioxins by the method of competitive dioxin binding on bead. […] The relationship between dioxin concentration and average fluorescence intensity is plotted in FIG. 6 (A). […]
# as §2, §3
# The binding constants of the DB2 peptide were calculated using the results of the above equation. […]
# [5] = 30% 1,4-dioxane, 4 nM NBD-labeled dichlorophenol, 0-100 nM substance
# [6] = peptide beads, solvent containing 30% 1,4-dioxane, fit of quenching ratio to one-to-one binding equation
Substance,"capability of detecting 2,3,7,8-TeCDD compared with DB2 [1]","fluorescence intensity when stained, compared with DB2 peptide [2]","2,3,7,8-TeCDD concentration that can be detected ([1]; 30% 1,4-dioxane)","quenching by competition with 10 nM 2,3,7-TriCDD [3]",further results
Cha Leu Asp Gln Val ([Cha]LDQV) [SEQ ID No. 5],equal to or more than that of DB2,equal to or greater than that of the DB2 peptide,,,
Phe Leu Asp Gln Leu (FLDQL) [SEQ ID No. 23],equal to or more than that of DB2,equal to or greater than that of the DB2 peptide,,,
Phe Leu Asp Gln Nva (FLDQ[Nva]) [SEQ ID No. 24],equal to or more than that of DB2,equal to or greater than that of the DB2 peptide,,,
Phe Leu Asp Gln Phg (FLDQ[Phg]) [SEQ ID No. 22],equal to or more than that of DB2,equal to or greater than that of the DB2 peptide,0.15 nM and 0.05 ng/ml,,"detection sensitivity to 2,3,7,8-TeCDD relative to DB2 ([1]; 30% dioxane solvent): about ten times greater than that of DB2; also recorded: about ten times higher than that of DB2"
Phe-Leu-Asp-Gln-Ile (FLDQI) [DB1],equal to or more than that of DB2,,,confirmed,
Phe-Leu-Asp-Gln-Val (FLDQV) [DB2],,,1 nM and about 0.3 ng/ml,confirmed,"concentration-dependent quenching by 2,3,7,8-TeCDD [1, 5]: Concentration-dependent quenching was observed; affinity (binding constant Ka) for 2,3,7,8-TeCDD [1, 6]: 1.7e+09 M⁻¹; concentration-dependent quenching by 2,3,7-TriCDD [4, 5]: Concentration-dependent quenching was observed; affinity (binding constant Ka) for 2,3,7-TriCDD [4, 6]: 2e+08 M⁻¹"
